Laboratory results taken from patent publication US20010051624A1, “Method and compositions for the treatment of allergic conditions using PGD2 receptor antagonists” (priority 2000, published 2001).

Tested on: ovalbumin-sensitized guinea pigs
Assay: Guinea pig allergic rhinitis model: intranasal pressure after nasal ovalbumin challenge
Assay type: in vivo
Conditions: 60 minutes prior to ovalbumin 1% challenge, AUC 0-30 min
Description: Male Hartley guinea pigs (250-500 g) purchased from Charles River (St-Constant, Qc, Canada) were used. They were housed in a temperature and humidity controlled environment, in groups of four or five with food and water available ad libitum. Experimental procedures were approved by the Animal Care Committee at Merck Frosst Centre for Therapeutic Research, in accordance with the guidelines of the Canadian Council on Animal Care.
Sensitization: The animals were injected intraperitoneally with 0.5 ml of an ovalbumin solution (100 μg/ml) containing 100 mg/ml aluminum hydroxide in 0.9% saline. […]
Following the surgical preparation, gallamine (2 mg/kg, i.v.) was administered to suppress spontaneous breathing. […] The changes in the intranasal pressure were monitored through a pressure transducer (Validyne DP-45, membrane 6-26, Validyne Corp., Northridge, Calif.) connected to a side arm of the nasal cannula. Values were recorded every 5 seconds using a data acquisition system (Modular Instruments, Malvern, Pa.). […]
The effects of test compounds were evaluated on the increased intranasal pressure following a nasal challenge with an aerosol of ovalbumin 1% for 3 minutes. […] The changes in intranasal pressure were recorded for the 30 minutes following the nasal challenge, using the peak response. […]

Row | Structure (SMILES) | effect on the increase in intranasal pressure induced by ovalbumin aerosol (Compound I 1 mg/kg i.p. alone) | effect on the increase in intranasal pressure induced by ovalbumin aerosol (mepyramine 5 mg/kg i.p. alone)
1 | C[S@+]([O-])c1cccc2c3c(n(Cc4ccc(Cl)cc4)c12)[C@@H](CC(=O)O)CCC3 [Compound I, 2-[(1R)-9-(4-chlorobenzyl)-8-((S)-methylsulfinyl)-2,3,4,9-tetrahydro-1H-carbazol-1-yl]acetic acid] | no significant effect | –
2 | COc1ccc(CN(CCN(C)C)c2ccccn2)cc1 [mepyramine] | – | no significant effect
